Assay results taken from patent publication US7019019B2, “Matriptase inhibitors and methods of use” (Dendreon Corporation, priority 2002, dated 2006).
Blank lines part the entries; values can stand above or below the molecule they belong to.

Legend:
Assay type in all cases: biochemical
α-thrombin = α-thrombin (Homo sapiens, UniProt P00734); test: Thrombin (fIIa) chromogenic assay (Pefachrome t-PA)
Method: (§1) The ability of compounds to act as a selective inhibitor of matriptase activity was assessed by determining the concentration of test-compound which inhibited the activity of matriptase by 50%, (IC50) as described in Example A, and comparing IC50 value for matriptase to that determined for all or some of the following serine proteases: thrombin, recombinant tissue plasminogen activator (rt-PA), plasmin, activated protein C, chymotrypsin, factor Xa and trypsin.
(§2) The buffer used for all assays was HBSA (10 mM HEPES, pH 7.5, 150 mM sodium chloride, 0.1% bovine serum albumin).
(§3) The assay for IC50 determinations was conducted by combining in appropriate wells of a Corning microtiter plate, 50 microliters of HBSA, 50 microliters of the test compound at a specified concentration (covering a broad concentration range) diluted in HBSA (or HBSA alone for V0 (uninhibited velocity) measurement), and 50 microliters of the enzyme diluted in HBSA. Following a 30 minute incubation at ambient temperature, 50 microliters of the substrate at the concentrations specified below were added to the wells, yielding a final total volume of 200 microliters. The initial velocity of chromogenic substrate hydrolysis was measured by the change in absorbance at 405 nm using a Thermo Max® Kinetic Microplate Reader over a 5 minute period in which less than 5% of the added substrate was utilized. The concentration of added inhibitor which caused a 50% decrease in the initial rate of hydrolysis was defined as the IC50 value.
Enzyme activity was determined using the chromogenic substrate, Pefachrome t-PA (CH3SO2-D-hexahydrotyrosine-glycyl-L-Arginine-p-nitroaniline, obtained from Pentapharm Ltd.). The substrate was reconstituted in deionized water prior to use.
The initial velocity of Pefachrome t-PA hydrolysis was measured by the change in absorbance at 405 nm using a Thermo Max® Kinetic Microplate Reader over a 5 minute period in which less than 5% of the added substrate was utilized. The concentration of added inhibitor which caused a 50% decrease in the initial rate of hydrolysis was defined as the IC50 value.

Matriptase = target: T1, Matriptase (Homo sapiens, UniProt Q9Y5Y6); test: Amidolytic assay for inhibition of serine protease activity of matriptase or MTSP1
T1 sequence (Q9Y5Y6 1-855 C731S): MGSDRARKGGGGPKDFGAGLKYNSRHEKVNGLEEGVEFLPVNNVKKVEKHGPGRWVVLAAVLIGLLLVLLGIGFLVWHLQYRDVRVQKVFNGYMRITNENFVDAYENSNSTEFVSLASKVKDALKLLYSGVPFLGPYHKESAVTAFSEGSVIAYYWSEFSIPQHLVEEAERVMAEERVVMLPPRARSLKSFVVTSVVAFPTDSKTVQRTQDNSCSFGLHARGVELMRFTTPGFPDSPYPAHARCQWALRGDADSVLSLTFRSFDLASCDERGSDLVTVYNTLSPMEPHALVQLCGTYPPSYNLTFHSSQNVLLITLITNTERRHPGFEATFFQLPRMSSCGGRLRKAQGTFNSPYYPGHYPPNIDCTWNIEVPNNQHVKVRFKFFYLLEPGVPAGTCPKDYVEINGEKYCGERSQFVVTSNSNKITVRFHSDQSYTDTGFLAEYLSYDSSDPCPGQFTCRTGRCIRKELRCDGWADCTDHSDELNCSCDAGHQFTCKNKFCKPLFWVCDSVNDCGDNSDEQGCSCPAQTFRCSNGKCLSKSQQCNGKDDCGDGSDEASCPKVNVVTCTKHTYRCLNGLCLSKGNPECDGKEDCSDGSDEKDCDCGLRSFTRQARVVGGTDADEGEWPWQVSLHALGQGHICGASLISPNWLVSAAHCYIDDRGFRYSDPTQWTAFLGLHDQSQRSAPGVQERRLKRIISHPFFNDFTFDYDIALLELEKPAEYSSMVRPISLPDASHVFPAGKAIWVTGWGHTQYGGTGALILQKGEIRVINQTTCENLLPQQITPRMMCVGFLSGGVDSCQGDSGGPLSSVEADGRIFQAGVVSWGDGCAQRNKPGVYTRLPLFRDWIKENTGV

Factor Xa = target: T2, Factor Xa (Homo sapiens, UniProt P00742); test: Factor Xa chromogenic assay (S-2765); conditions: read-out: Ki FXa
T2 construct: purchased Enzyme Research Laboratories, Inc. (South Bend, Ind.)
Method: as §1, §2
as §3, with “The concentration of added inhibitor which caused a 50% decrease in the initial rate of hydrolysis was defined as the IC50 value.” left out
Factor Xa catalytic activity was determined using the chromogenic substrate S-2765 (N-benzyloxycarbonyl-D-arginine-L-glycine-L-arginine-p-nitro aniline), obtained from DiaPharma Group (Franklin, Ohio). All substrates were reconstituted in deionized water prior to use. […] Purified human Factor X was obtained from Enzyme Research Laboratories, Inc. (South Bend, Ind.) and Factor Xa (FXa) was activated and prepared from it as described [Bock, P. E., Craig, P. A., Olson, S. T., and Singh, P. Arch. Biochem. Biophys. 273:375-388 (1989)]. The enzyme was diluted into HBSA prior to assay in which the final concentration was 0.25 nM.

plasmin = plasmin (Homo sapiens, UniProt P00747); test: Plasmin chromogenic assay (S-2366)
Method: as §1, §2, §3
Plasmin catalytic activity was determined using the chromogenic substrate, S-2366 [L-pyroglutamyl-L-prolyl-L-arginine-p-nitroaniline hydrochloride], which was obtained from DiaPharma group. The substrate was made up in deionized water followed by dilution in HBSA prior to the assay in which the final concentration was 300 micromolar (about 2.5-times Km). Purified human plasmin was obtained from Enzyme Research Laboratories, Inc. The enzyme was diluted into HBSA prior to assay in which the final concentration was 1.0 nM.

[1] = target: T3, (Homo sapiens, UniProt Q9UL52); test: In vitro enzyme assay for specificity: Endothelin 1
T3 sequence (Q9UL52 192-423): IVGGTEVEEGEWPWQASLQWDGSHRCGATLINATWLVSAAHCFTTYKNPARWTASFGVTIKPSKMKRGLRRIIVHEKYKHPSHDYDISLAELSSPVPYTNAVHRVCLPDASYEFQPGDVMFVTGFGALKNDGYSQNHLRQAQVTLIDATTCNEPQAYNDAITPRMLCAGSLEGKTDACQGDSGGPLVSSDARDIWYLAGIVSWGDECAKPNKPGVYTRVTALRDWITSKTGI

[2] = target: T4, (Homo sapiens, UniProt Q9BYE2); test: In vitro enzyme assay for specificity: Endothelin 2
T4 sequence (Q9BYE2 326-586): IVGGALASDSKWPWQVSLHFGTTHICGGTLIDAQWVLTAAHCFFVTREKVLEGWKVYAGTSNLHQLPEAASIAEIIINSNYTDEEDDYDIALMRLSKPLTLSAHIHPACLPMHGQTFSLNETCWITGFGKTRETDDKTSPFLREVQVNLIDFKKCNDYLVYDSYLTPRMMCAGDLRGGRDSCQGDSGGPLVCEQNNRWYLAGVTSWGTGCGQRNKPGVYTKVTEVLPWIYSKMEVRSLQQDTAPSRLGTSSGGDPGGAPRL

T2 sequence (P00742 235-488 limits assumed): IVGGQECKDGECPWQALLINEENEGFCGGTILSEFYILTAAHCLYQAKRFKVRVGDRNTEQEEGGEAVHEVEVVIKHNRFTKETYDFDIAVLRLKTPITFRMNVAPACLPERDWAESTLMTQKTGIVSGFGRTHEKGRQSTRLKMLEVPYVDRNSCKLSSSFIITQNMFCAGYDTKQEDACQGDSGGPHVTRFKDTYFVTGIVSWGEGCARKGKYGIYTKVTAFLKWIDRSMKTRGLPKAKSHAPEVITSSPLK
T2 sequence (P00742 41-179 partner limits assumed): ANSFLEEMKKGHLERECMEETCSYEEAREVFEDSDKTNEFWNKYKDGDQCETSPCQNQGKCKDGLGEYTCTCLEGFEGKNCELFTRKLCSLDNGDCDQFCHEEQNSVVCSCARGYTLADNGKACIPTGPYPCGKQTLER
plasmin, sequence (P00747 581-810 limits assumed): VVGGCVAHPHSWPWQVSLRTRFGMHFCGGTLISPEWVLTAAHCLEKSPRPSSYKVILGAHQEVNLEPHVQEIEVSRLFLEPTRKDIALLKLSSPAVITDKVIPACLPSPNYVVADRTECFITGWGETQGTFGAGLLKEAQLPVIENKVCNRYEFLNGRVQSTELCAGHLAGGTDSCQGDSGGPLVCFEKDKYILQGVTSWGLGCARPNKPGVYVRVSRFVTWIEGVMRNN
plasmin, sequence (P00747 97-580 partner limits assumed): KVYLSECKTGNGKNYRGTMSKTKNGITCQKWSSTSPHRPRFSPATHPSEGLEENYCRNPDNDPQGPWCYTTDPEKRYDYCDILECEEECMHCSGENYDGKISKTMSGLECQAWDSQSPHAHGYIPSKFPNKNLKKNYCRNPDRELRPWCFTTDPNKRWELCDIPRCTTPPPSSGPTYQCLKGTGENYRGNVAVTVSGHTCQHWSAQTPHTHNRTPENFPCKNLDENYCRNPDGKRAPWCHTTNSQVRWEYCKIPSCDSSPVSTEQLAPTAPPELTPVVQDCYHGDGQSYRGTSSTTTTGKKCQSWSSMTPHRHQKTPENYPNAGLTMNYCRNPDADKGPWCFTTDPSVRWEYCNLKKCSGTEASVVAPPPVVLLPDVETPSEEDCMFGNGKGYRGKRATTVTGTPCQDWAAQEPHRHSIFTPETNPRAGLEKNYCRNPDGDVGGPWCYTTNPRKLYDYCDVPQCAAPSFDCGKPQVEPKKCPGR

Molecule: COC(=O)CC[C@](Cc1cccc(C(=N)N)c1)(NC(=O)OC)C(=O)NCC(=O)NCc1nc(C(=N)N)cs1 [MeOCO-(Me)E(α-(3-Amdn)Bn)-G-(4-Amdn)thiazole-2-MeAm]
Ki (α-thrombin): > 2500 nM
Ki (Matriptase): 250 to 500 nM
Ki (Factor Xa): > 2500 nM

Molecule: 3(3-Amdn)Bn-3(Methsulfone)hydantoin-G-(2-Amdn)thiazole-2-MeAm
Ki (α-thrombin): > 2500 nM
Ki (Matriptase): 100 to 250 nM
Ki (Factor Xa): > 2500 nM
Ki [1]: > 2500 nM
Ki [2]: > 2500 nM

Molecule: iBoc-(Me)E(R)(alpha-(3-Amdn)Bn)-G-(2-Amdn)thiophene-5MeAm
Ki (α-thrombin): 250 to 500 nM
Ki (Matriptase): 250 to 500 nM

Molecule: COC(=O)NC(CCS(C)(=O)=O)(Cc1ccnc(N)c1)C(=O)NCC(=O)NCc1ccc(C(=N)N)s1 (stereo not drawn) [N-MeOCO-(α-(3-Am)4-pyrMe)M(O2)-G-(2-Amdn)thiophene-5-MeAm]
Ki (α-thrombin): > 2500 nM
Ki (Matriptase): 100 to 250 nM
Ki (Factor Xa): 250 to 500 nM

Other lines, results leading:

Ki (α-thrombin): > 2500 nM
Ki (Matriptase): < 100 nM
Ki (Factor Xa): 500 to 2500 nM
Ki (plasmin): > 2500 nM
Molecule: COC(=O)N[C@](CCC(=O)OC(C)(C)C)(Cc1cccc(C(=N)N)c1)C(=O)NCC(=O)NCc1ccc(C(=N)N)s1 [MeOCO(t-Bu)E(R)(alpha-(3-Amdn)Bn)-G-(2-Amdn)thiophene-5-MeAm]

Ki (Matriptase): < 100 nM
Ki (Factor Xa): 500 to 2500 nM
Ki [1]: > 2500 nM
Ki (plasmin): > 2500 nM
Molecule: alpha-(3-amidinoBn)MeSO2-G-(2-Amdn)thiophene-5-MeAm

Ki (α-thrombin): 500 to 2500 nM
Ki (Matriptase): 100 to 250 nM
Ki (Factor Xa): 500 to 2500 nM
Ki (plasmin): 500 to 2500 nM
Molecule: N=C(N)c1cccc(CC(N)(CCC(=O)O)C(=O)NCC(=O)NCc2ccc(C(=N)N)s2)c1 (stereo not drawn) [E(alpha-(3-Amdn)Bn)-G-(2-Amdn)thiophene-5MeAm]

Ki (Matriptase): 100 to 250 nM
Molecule: COC(=O)CCC(N)(Cc1cccc(C(=N)N)c1)C(=O)NCC(=O)NCc1ccc(C(=N)N)s1 (stereo not drawn) [(Me)E(alpha-(3-Amdn)Bn)-G-(2-Amdn)thiophene-5MeAm]

Ki (α-thrombin): 500 to 2500 nM
Ki (Matriptase): < 100 nM
Ki (Factor Xa): > 2500 nM
Ki (plasmin): 500 to 2500 nM
Molecule: N=C(N)c1cccc(C[C@@]2(C(=O)NCC(=O)NCc3ccc(C(=N)N)s3)CCC(=O)N2)c1 [α-(3-Amdn)BnPyro-G-(2-Amdn)thiophene-5-MeAm]

Ki (α-thrombin): 250 to 500 nM
Ki (Matriptase): 100 to 250 nM
Ki (Factor Xa): > 2500 nM
Molecule: COC(=O)NC(CCC(=O)OC(C)(C)C)(Cc1cccc(C(=N)N)c1)C(=O)NCC(=O)NCc1ccc(C(=N)N)cc1 (stereo not drawn) [MeOCO-E(O-t-Butyl)(alpha-(3-Amdn)Bn)-G-(4-Amdn)BnAm]
